From patent US12419877B2, “Solid forms of {[5-(3-chlorophenyl)-3-hydroxypyridine-2-carbonyl]amino}acetic acid, compositions, and uses thereof” (Akebia Therapeutics, Inc., priority 2013, dated 2025) come the findings set out here.

A short description of data set [1]: Solid form stability in slurries. The note with it: slurries at high temperature. Format: physicochemical.
Data set [2] can be described thus: Dynamic Vapour Sorption (DVS) with XRPD re-analysis. Format: physicochemical. The method, then:
Dynamic Vapour Sorption (DVS) was performed on a DVS-1 dynamic vapour sorption balance by Surface Measurement Systems. Approximately 10-20 mg of sample was loaded into a wire mesh vapour sorption balance pan of the balance. The sample was subjected to a ramping profile from 20-90% relative humidity (RH) in 10% increments, maintaining the sample at each step until a stable weight had been achieved (99.5% step completion) or 1000 minutes had elapsed. After completion of the sorption cycle, the sample was dried using the same procedure, but all the way down to 0% RH and finally taken back to the starting point of 20% RH. The weight change during the sorption/desorption cycles were plotted, allowing for the hygroscopic nature of the sample to be determined. Following the DVS analysis, the solid was re-analysed by XRPD in order to determine whether there had been any change in physical form.

Consider `O=C(O)CNC(=O)c1ncc(-c2cccc(Cl)c2)cc1O` [Form B, {[5-(3-chlorophenyl)-3-hydroxypyridine-2-carbonyl]amino}acetic acid], for which the solid form stability entry in data set [1] was “metastable and can convert to Form A in slurries at high temperature”. Further, the “water sorption at 90% RH” value in data set [2] (DVS, 90% RH) turned out to be 0.33%. For the same molecule, the “XRPD analysis following DVS (change in physical form)” value in data set [2] (after DVS sorption/desorption cycle) is on record as “no change in form”. Further, the “hygroscopicity (DVS)” value in data set [2] (judged from water sorption at 90% RH) is “non-hygroscopic”.
